# In ChEMBL document CHEMBL2385060, “A dihydrochalcone and several homoisoflavonoids from Polygonatum odoratum are activators of adenosine monophosphate-activated protein kinase” (Bioorg Med Chem Lett, 2013):
# Active and inactive are the calls of the source. No cut-off for these calls is given here.
# Experiments:
# Type in all cases: cell-based
# [1] = target: 5'-AMP-activated protein kinase catalytic subunit alpha-2 (Rattus norvegicus) (UniProt Q09137); assay: Activation of AMPK in rat IAR-20 cells assessed as phosphorylated acetyl CoA carboxylase level at 10 uM after 30 mins by Western blot analysis
# 5'-AMP-activated protein kinase catalytic subunit alpha-2 (Rattus norvegicus), sequence (Q09137 whole entry): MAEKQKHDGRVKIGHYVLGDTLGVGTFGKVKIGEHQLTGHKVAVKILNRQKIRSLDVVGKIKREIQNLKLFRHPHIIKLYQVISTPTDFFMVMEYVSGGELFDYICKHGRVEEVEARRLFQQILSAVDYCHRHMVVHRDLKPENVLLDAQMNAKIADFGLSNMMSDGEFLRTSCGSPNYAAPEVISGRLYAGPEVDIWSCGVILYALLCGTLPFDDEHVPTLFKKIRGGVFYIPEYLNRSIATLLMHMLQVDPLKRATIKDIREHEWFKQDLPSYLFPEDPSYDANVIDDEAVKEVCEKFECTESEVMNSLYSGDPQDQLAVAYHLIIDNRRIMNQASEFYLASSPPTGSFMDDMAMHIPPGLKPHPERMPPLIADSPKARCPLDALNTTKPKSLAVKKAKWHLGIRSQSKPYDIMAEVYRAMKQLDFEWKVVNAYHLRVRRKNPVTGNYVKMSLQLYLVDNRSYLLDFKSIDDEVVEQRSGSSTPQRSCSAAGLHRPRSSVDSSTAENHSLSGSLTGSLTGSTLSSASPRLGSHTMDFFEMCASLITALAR
# [2] = target: 5'-AMP-activated protein kinase catalytic subunit alpha-2 (Rattus norvegicus) (UniProt Q09137); assay: Activation of AMPK in rat IAR-20 cells assessed as phosphorylated protein level at 10 uM after 30 mins by Western blot analysis
# [3] = target: 5'-AMP-activated protein kinase catalytic subunit alpha-2 (Rattus norvegicus) (UniProt Q09137); assay: Inhibition of AMPK in rat IAR-20 cells assessed as phosphorylated acetyl CoA carboxylase level at 10 uM after 30 mins by Western blot analysis
# [4] = target: 5'-AMP-activated protein kinase catalytic subunit alpha-2 (Rattus norvegicus) (UniProt Q09137); assay: Inhibition of AMPK in rat IAR-20 cells assessed as phosphorylated protein level at 10 uM after 30 mins by Western blot analysis
Compound,Activity [1],Activity [2],inhibition [3],inhibition [4]
COc1c(O)c(C)c(O)c2c1OC[C@@H](Cc1ccc(O)cc1)C2=O,Active,Active,,
Cc1c(O)c(C)c2c(c1O)C(=O)[C@](O)(Cc1ccc(O)cc1)CO2,,,Active,Active
Cc1c(O)c(C)c2c(c1O)C(=O)[C@H](Cc1ccc(O)cc1)CO2,Active,Active,,
COc1c(O)c(C)c(O)c2c1OC[C@@](O)(Cc1ccc(O)cc1)C2=O,,,Active,Active
COc1ccc(CC2COc3c(OC)c(O)cc(O)c3C2=O)c(O)c1 (centres undefined),,,Active,Active
COc1cc(O)c(C)c(O)c1C(=O)CCc1ccc(O)cc1,Active,Active,,
Cc1c(O)cc2c(c1O)C(=O)[C@H](Cc1ccc(O)cc1)CO2,Active,Active,,
